# Measured values taken from patent US9000155B2, “Cyclic triazo sodium channel blockers” (University of Greenwich, priority 2009, dated 2015).
# Where “and” joins values, the source holds several entries; their conditions need not be identical. Equal entries are not always repeated. Structures can show the parent of a compound that is named as a salt. Where two headings read alike, the source gives them in different places.
# Legend:
# L-Type Calcium Channels = assay: L-type calcium channel binding ([3H]nitrendipine, rat cerebral cortex membranes)
# Source text: Compounds were sent to MDS Pharma for measurement of their inhibition @ […] of the binding of [^3H]nitrendipine to rat cerebral cortex membranes.
# [1] = test system: maximal electroshock (MES); assay: Mouse MES model of epilepsy; type: in vivo; settings: 72 mg/Kg (free base) po
# Protocol: In mouse model of epilepsy (MES), compounds CEN-079 and CEN-216 were dosed orally (100 and 72 mg/kg free base respectively) @ 1 h, 6 h and 24 h prior to ‘shock).
# Sodium Channel, Site 2 = assay: Inhibition of binding of [3H]BTX-B to Wistar rat brain
# [2] = test system: maximal electroshock-induced tonic convulsions; assay: Rat MES (Maximal ElectroShock) anticonvulsant test; type: in vivo; settings: for MES Results (% protection): n = 5 rats; for ED50: Rattus norvegicus, po
# Protocol: Male Wistar rats provided by BioLasco Taiwan (under Charles River Laboratories Technology Licensee) were used. Space allocation for 5 animals was 45×23×21 cm. Animals were housed in animal cages and maintained in a controlled temperature (21-23° C.) and humidity (50%-70%) environment with 12 hours light/dark cycles for at least three days in MDS Pharma Services—Taiwan Laboratory prior to use. Free access to standard lab chow for rats [MF-18 (Oriental Yeast Co., Ltd. Japan)] and reverse osmosis (RO) water were granted ad libitum. All aspects of this work including housing, experimentation and disposal of animals were performed in general accordance with the Guide for the Care and Use of Laboratory Animals (National Academy Press, Washington, D.C., 1996).
# Test compounds were suspended/dissolved in 2% Tween 80 and dosed orally at a dose volume of 10 ml/Kg to groups of 5 Wistar male rats weighing 180+/−20 g, one hour before maximal electroshock (MES, 60 Hz sine wave, 150 mA, 200 msec duration) was applied through corneal electrodes. Appearance of maximal electroshock-induced tonic convulsions (MES) was determined for each animal. 50 percent or more (50%) inhibition of tonic convulsions by test substance indicates significant anticonvulsant activity.
# Test substances (CEN-216, CEN-145, CEN-148, CEN-152 and CEN-154) at 14, 42 or 100 mg/kg were administered orally to groups of 5 Wistar derived male rats weighing 180±20 g.
# In rat model of epilepsy (Maximal ElectroShock—MES), in which compounds were dosed orally one hour prior to ‘shock’, the ED50 (effective dose to protect 50% of rats from limb extension etc.) for CEN-216 is approx 9 mg/kg free base.
# hERG = molecular target: T1, hERG (Homo sapiens, UniProt Q12809); assay: Inhibition of binding of [3H]astemizole to HEK-293 cells expressing hERG; settings: for inhibition at 10 µM: human, HEK-293 cells expressing human recombinant hERG, probe [3H]astemizole
# T1 construct: host or cells: HEK-293
# Protocol: Another common side-effect marker is inhibition of human Ether-a-go-go Related Gene potassium (hERG) potassium channel (Inward rectifying, IKr) activity which can be fatal due to heart failure brought about by development of long QT syndrome. A useful preliminary screen to assess potential to affect this channel is assessed by measurement of inhibition of the binding of [3H]astemizole to cell membranes expressing hERG. Selected compounds are tested for this activity by measurement of inhibition @ 10 μM.
# Compounds were sent to MDS Pharma for measurement of their inhibition @ 10 μM concentration of the binding of [^3H]astemizole to HEK-293 cells expressing human recombinant hERG.
# Microsome stability = type: in vitro ADME, human; settings: 1 μM
# Protocol: Compounds were sent to BioFocus for measurement of their stability @ 1 μM concentration following incubation with rat liver microsomes for 40 minutes @ 37°.
# [3] = test system: 0.4 mm slices of rat hippocampus; type: cell-based
# sodium channel = type: biochemical, rat; settings: read-out: [14C]guanidine flux Mean IC50
# Source text: The screening strategy is designed to select compounds with appropriate sodium channel blocking activity and low side effect liability. To this end all compounds are processed through the primary sodium channel assay (veratrine-evoked uptake of [^14C]guanidine into rat forebrain synaptosomes) and IC50 values computed from generated concentration-effect curves.
# Following killing of animals by stunning and decapitation, the forebrain (whole brain less cerebellum/medulla) was rapidly dissected and transferred to a weighed tube containing ice-cold 0.25M sucrose.
# Synaptosomes (heavy and light mitochondrial fraction containing synaptosomes) were prepared by transferring the forebrain (of known wet weight) to a glass Potter vessel to which 9 volumes ice-cold 0.25M sucrose had been added and homogenising, using a teflon pestle, by 8 ‘up and down strokes’ of a Braun Potter S motor driven homogeniser set to 900 rpm. The resulting homogenate was centrifuged at 1036×g at 4° for 10 min and the supernatant collected. The remaining pellet was resuspended, as above, in fresh ice-cold 0.25M sucrose and the centrifugation step repeated. The supernatant fractions were pooled and centrifuged at 40,000×g (average) at 4° for 15 min and the resulting pellet resuspended in the appropriate assay buffer at a concentration of 20-25 mg wet weight per ml appropriate assay buffer. […]
# [4] = extrapolated, read-out: Nach ([3H]BTX-B) (extrapolated IC50 μM)
# [5] = read-out: [3H]BTX-B binding Extrapolated IC50
# [6] = extrapolated, read-out: hERG ([3H]astemizole) (extrapolated IC50 μM)
# [7] = hERG IC50 (μM) (extrapolated from 10 μM inh'n), extrapolated from 10 μM inhibition, slope assumed 1.0
# [8] = 1 h, read-out: Rat MES ED50 (very approx, from single 100 mg/kg dose), free base, one hour prior to shock
# T1 sequence (Q12809 whole entry): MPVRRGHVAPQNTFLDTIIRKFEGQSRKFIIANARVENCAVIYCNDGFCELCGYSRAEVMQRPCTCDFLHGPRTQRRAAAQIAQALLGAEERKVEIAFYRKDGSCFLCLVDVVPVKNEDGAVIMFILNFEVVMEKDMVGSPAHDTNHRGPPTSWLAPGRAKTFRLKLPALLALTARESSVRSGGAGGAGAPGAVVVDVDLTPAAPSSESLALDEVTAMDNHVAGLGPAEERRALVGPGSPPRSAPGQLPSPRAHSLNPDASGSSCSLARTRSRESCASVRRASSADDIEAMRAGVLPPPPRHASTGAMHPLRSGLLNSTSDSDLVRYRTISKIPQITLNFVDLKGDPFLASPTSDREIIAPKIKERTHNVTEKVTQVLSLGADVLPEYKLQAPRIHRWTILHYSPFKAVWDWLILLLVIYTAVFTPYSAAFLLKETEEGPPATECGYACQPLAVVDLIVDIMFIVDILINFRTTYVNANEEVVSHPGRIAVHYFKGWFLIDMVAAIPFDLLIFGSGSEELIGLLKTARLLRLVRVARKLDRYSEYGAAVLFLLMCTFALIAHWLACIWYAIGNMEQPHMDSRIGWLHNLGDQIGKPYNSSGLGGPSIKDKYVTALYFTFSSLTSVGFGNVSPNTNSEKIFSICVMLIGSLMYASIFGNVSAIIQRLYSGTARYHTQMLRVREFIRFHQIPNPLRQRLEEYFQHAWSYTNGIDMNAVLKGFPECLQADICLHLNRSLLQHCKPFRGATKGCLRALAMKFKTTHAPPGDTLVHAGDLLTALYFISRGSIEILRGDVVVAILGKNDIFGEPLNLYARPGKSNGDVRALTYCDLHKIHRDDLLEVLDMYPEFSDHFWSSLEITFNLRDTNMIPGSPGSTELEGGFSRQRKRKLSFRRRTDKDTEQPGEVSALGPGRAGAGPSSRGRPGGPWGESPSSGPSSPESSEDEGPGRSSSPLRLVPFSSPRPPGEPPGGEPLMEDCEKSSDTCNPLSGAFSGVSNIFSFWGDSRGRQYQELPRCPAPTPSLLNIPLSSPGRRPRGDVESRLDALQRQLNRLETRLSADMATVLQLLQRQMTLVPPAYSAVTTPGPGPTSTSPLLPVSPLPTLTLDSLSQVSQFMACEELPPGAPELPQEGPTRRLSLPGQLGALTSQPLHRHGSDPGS
compound,measurement,setting,value
"N=c1nc(N)c(-c2cccc(Cl)c2Cl)nn1CC(Cl)(Cl)Cl [CEN-216, 5(3)-Amino-6-(2,3-dichlorophenyl)-2,3(2,5)-dihydro-3(5)-imino-2-(2,2,2-trichloroethyl)-1,2,4-triazine trifluoromethanesulphonate]",L-type Ca2+ % inhibition @ 10 μM,L-Type Calcium Channels; 10 μM,27%
same,IC50,"L-Type Calcium Channels; extrapolated, read-out: extrapolated IC50 in L-type Calcium (phenylalkylamine site) binding assay",27 µM
same,IC50,"L-Type Calcium Channels; read-out: L-type Ca2+ IC50 (μM) (extrapolated from 10 μM inh'n), extrapolated from 10 μM inhibition, slope assumed 1.0",27 µM
same,duration of action following po dose in mouse,[1],long duration of action
same,Mouse MES % protection,[1]; 1 h prior to shock,100%
same,Mouse MES % protection,[1]; 6 h prior to shock,100%
same,Mouse MES % protection,[1]; 24 h prior to shock,100%
same,[3H]BTX-B binding % inhibition (@ 10 μM),"Sodium Channel, Site 2",42%
same,IC50,"Sodium Channel, Site 2; [4]",20 µM
same,IC50,"Sodium Channel, Site 2; [5]",13.8 µM
same,MES Results (% protection),[2]; 1 mg/kg po,0%
same,MES Results (% protection),[2]; 3 mg/kg po,0%
same,Rat MES (anticonvulsant in vivo) % protection,[2]; 10 mg/Kg (free base) po,80%
same,MES Results (% protection),[2]; 10 mg/kg po,80%
same,MES Results (% protection),[2]; 30 mg/kg po,100%
same,MES Results (% protection),[2]; 100 mg/kg po,100%
same,ED50,"[2]; 1 h, free base, dosed orally one hour prior to shock, read-out: Rat MES ED50 (effective dose to protect 50% of rats)",~9 mg/kg
same,ED50,[2]; read-out: Rat MES ED50,9 mg/kg
same,IC50,hERG; [6],50 µM
same,IC50,hERG; [7],73.3 µM
same,inhibition at 10 µM,hERG,12%
same,Microsome stability (human) % metabolized (40 min incubation 37°),Microsome stability,0%
N=c1nc(N)c(-c2cc(Cl)cc(Cl)c2Cl)nn1CC(Cl)(Cl)Cl [CEN-248],[3H]BTX-B binding % inhibition (@ 10 μM),"Sodium Channel, Site 2",27%
same,IC50,"Sodium Channel, Site 2; [4]",27 µM
same,IC50,"Sodium Channel, Site 2; [5]",27 µM
same,Rat MES (anticonvulsant in vivo) % protection,[2]; 30 mg/Kg (free base) po,100% protection @ 30
same,MES Results (% protection),[2]; 30 mg/kg po,100%
N=c1nc(N)c(-c2cccc(Cl)c2Cl)nn1CC(F)(F)C(F)(F)F [CEN-217],[3H]BTX-B binding % inhibition (@ 10 μM),"Sodium Channel, Site 2",105%
same,IC50,"Sodium Channel, Site 2; [4]",< 0.5 µM
same,IC50,"Sodium Channel, Site 2; [5]",< 0.5 µM
same,Rat MES (anticonvulsant in vivo) % protection,[2]; 100 mg/Kg (free base) po,60% and 60 @ 100%
same,MES Results (% protection),[2]; 100 mg/kg po,60%
same,ED50,[2]; [8],~80 mg/kg
same,IC50,hERG; [6],26 µM
same,IC50,hERG; [7],25.7 µM
same,inhibition at 10 µM,hERG,28%
"NC1=N[C@H](O)[C@H]2[C@H]3O[C@]4(O)O[C@@H]([C@@H](O)[C@@]2(N1)[C@@H]4O)[C@]3(O)CO [TTX, tetrodotoxin]",% protection (v 1 μM TTX) (mean ± sem),[3],100%
"Nc1nnc(-c2cccc(Cl)c2Cl)c(N)n1 [CEN-1, 3,5-Diamino-6-(2,3-dichlorophenyl)-1,2,4-triazine, reference compound]",MES Results (% protection),[2]; 3 mg/kg po,60%
same,MES Results (% protection),[2]; 10 mg/kg po,100%
same,MES Results (% protection),[2]; 25 mg/kg po,100%
same,IC50,sodium channel,219 µM
same,Microsome stability (human) % metabolized (40 min incubation 37°),Microsome stability,20%
N=c1nc(N)c(-c2cccc(Cl)c2Cl)nn1CC(F)(F)C(F)F [CEN-218],[3H]BTX-B binding % inhibition (@ 10 μM),"Sodium Channel, Site 2",108%
same,IC50,"Sodium Channel, Site 2; [4]",< 0.5 µM
same,IC50,"Sodium Channel, Site 2; [5]",< 0.5 µM
same,Rat MES (anticonvulsant in vivo) % protection,[2]; 100 mg/Kg (free base) po,40 @ 100%
same,Rat MES (anticonvulsant in vivo) % protection,"[2]; 100 mg/Kg (free base) po, listed as 218",40%
same,MES Results (% protection),[2]; 100 mg/kg po,40%
same,ED50,[2]; [8],~120 mg/kg
same,IC50,hERG; [6],40 µM
same,IC50,hERG; [7],40 µM
same,inhibition at 10 µM,hERG,20%
"O=C1NC(=O)C(c2ccccc2)(c2ccccc2)N1 [DiPhenylHydantoin, Diphenylhydantoin sodium salt, reference compound]",MES Results (% protection),[2]; 100 mg/kg po,80%
same,% protection (v 1 μM TTX) (mean ± sem),[3],48%
